Test results: patent US20220085295A1, “Novel Compound and Organic Light Emitting Device Comprising the Same” (LG Chem, Ltd., priority 2019, published 2022)

Experiment: Solubility experiment in toluene
Type: physicochemical
Settings: in toluene at room temperature/normal pressure

SMILES	Solubility (wt %)
CC(C)(C)c1ccc(N(c2ccccc2)c2ccc3c(c2)C2(c4ccccc4-c4ccccc42)c2cc(N(c4ccccc4)c4ccc(C(C)(C)C)cc4)c4c(oc5ccccc54)c2-3)cc1 [Compound BD, reference compound]	2.0
CC(C)(C)c1ccc(Oc2ccc(C3(c4ccc(C(C)(C)C)cc4)c4cc(N(c5ccccc5)c5ccc(C(C)(C)C)cc5)c5c(oc6ccccc65)c4-c4c3cc(N(c3ccccc3)c3ccc(C(C)(C)C)cc3)c3oc5ccccc5c43)cc2)cc1 (stereo not shown) [Compound 7]	3.8
Cc1ccc(C)c(C2(c3ccc([Si](C)(C)C)cc3)c3cc(N(c4ccccc4)c4ccc(C(C)(C)C)cc4)c4c(oc5ccccc54)c3-c3c2cc(N(c2ccccc2)c2ccc(C(C)(C)C)cc2)c2oc4ccccc4c32)c1 (stereo not shown) [Compound 9]	3.4
CC(C)(C)c1ccc(N(c2ccc(C(C)(C)C)cc2)c2ccc(C3(c4ccc(C(C)(C)C)cc4)c4cc(N(c5ccccc5)c5ccc(C(C)(C)C)cc5)c5c(oc6ccccc65)c4-c4c3cc(N(c3ccccc3)c3ccc(C(C)(C)C)cc3)c3oc5ccccc5c43)cc2)cc1 (stereo not shown) [Compound 5]	3.9
CC(C)(C)c1ccc(Sc2ccc(C3(c4ccc(C(C)(C)C)cc4)c4cc(N(c5ccccc5)c5ccc(C(C)(C)C)cc5)c5c(oc6ccccc65)c4-c4c3cc(N(c3ccccc3)c3ccc(C(C)(C)C)cc3)c3oc5ccccc5c43)cc2)cc1 (stereo not shown) [Compound 8]	3.9
CC(C)(C)c1ccc(N(c2ccc(C(C)(C)C)cc2)c2ccc(C3(c4ccc(C(C)(C)C)cc4)c4cc(N(c5ccccc5)c5ccc(C(C)(C)C)cc5)ccc4-c4c3cc(N(c3ccccc3)c3ccc(C(C)(C)C)cc3)c3c4-c4ccccc4C3(C)C)cc2)cc1 (stereo not shown) [Compound 3]	5.8
CC(C)(C)c1ccc(N(c2ccc(C(C)(C)C)cc2)c2ccc(C3(c4ccc(C(C)(C)C)cc4)c4cc(N(c5ccc(C(C)(C)C)cc5)c5cccc6c5oc5ccccc56)c5c(oc6ccccc65)c4-c4c3cc(N(c3ccc(C(C)(C)C)cc3)c3cccc5c3oc3ccccc35)c3oc5ccccc5c43)cc2)cc1 (stereo not shown) [Compound 6]	4.1
CC(C)(C)c1ccc(N(c2ccc(C(C)(C)C)cc2)c2ccc(C3(c4ccc(C(C)(C)C)cc4)c4cc(N(c5ccc(C(C)(C)C)cc5)c5cccc6c5oc5ccccc56)ccc4-c4c3cc(N(c3ccc(C(C)(C)C)cc3)c3cccc5c3oc3ccccc35)c3oc5ccccc5c43)cc2)cc1 (stereo not shown) [Compound 2]	4.7
CC(C)(C)c1ccc(N(c2ccc(C(C)(C)C)cc2)c2ccc(C3(c4ccc(C(C)(C)C)cc4)c4cc(N(c5ccccc5)c5ccc(C(C)(C)C)cc5)ccc4-c4c3cc(N(c3ccccc3)c3ccc(C(C)(C)C)cc3)c3oc5ccccc5c43)cc2)cc1 (stereo not shown) [Compound 1]	4.5
CC(C)(C)c1ccc(N(c2ccc(C(C)(C)C)cc2)c2ccc(C3(c4ccc(C(C)(C)C)cc4)c4cc(N(c5ccc(C(C)(C)C)cc5)c5cccc6c5oc5ccccc56)ccc4-c4c3cc(N(c3ccc(C(C)(C)C)cc3)c3cccc5c3oc3ccccc35)c3c4-c4ccccc4C3(C)C)cc2)cc1 (stereo not shown) [Compound 4]	5.5
